The values that follow come from US8829202B2, “Condensed polycyclic aromatic compound, aromatic polymer, and method for synthesizing aromatic compound” (Teijin Limited, priority 2011, dated 2014).

Values joined by “and” are separate entries in the source; they are usually repeats but may differ in a detail not shown here. Equal entries are not always repeated.

The nature of one data set: Solubility of the obtained compound in chloroform. The settings on record: solvent chloroform. Format: physicochemical.
For `CC[Si](C#Cc1c2ccccc2cc2sc3c(sc4cc5ccccc5c(C#C[Si](CC)(CC)CC)c43)c12)(CC)CC` [Di-triethylsilylacetylene-substituted DNTT], the solubility in chloroform is 0.10 wt % and 0.13 wt %.
In turn, `C[Si](C)(C)C#Cc1c2ccccc2cc2sc3c(sc4cc5ccccc5c(C#C[Si](C)(C)C)c43)c12` [Di-trimethylsilylacetylene-substituted DNTT] registered a solubility in chloroform of 0.05 wt %.
`CCCCCCCCC#Cc1c2ccccc2cc2sc3c(sc4cc5ccccc5c(C#CCCCCCCCC)c43)c12` [di-1-dysine-substituted DNTT, Di-1-dysine-substituted dinaphthothienothiophene] returned a solubility in chloroform of 2.3 wt %.
Still for that read-out and setting: under `CCCCCCCCCCCCC#Cc1c2ccccc2cc2sc3c(sc4cc5ccccc5c(C#CCCCCCCCCCCCC)c43)c12` [di-1-tetradysine-substituted DNTT, di-1-tetradecyne-substituted DNTT] stands 6.5 wt %.
`CCCCCCCCCCc1c2ccccc2cc2sc3c(sc4cc5ccccc5c(CCCCCCCCCC)c43)c12` [di-decane-substituted DNTT] had a solubility in chloroform of 0.05 wt %.
Molecule “Di-triisopropylsilylacetylene-substituted dinaphthothienothiophene [di-TIPS-substituted DNTT]” yielded a solubility in chloroform of 0.2 wt %.
“Di-triisopropylsilylethane-substituted DNTT”: the solubility in chloroform is 0.51 wt %.

Still in this data set, the particulars now being: solvent chloroform; DNTT used as raw material.
Regarding `c1ccc2cc3c(cc2c1)sc1c2cc4ccccc4cc2sc31` [DNTT, Dinaphthothienothiophene, reference compound], the “solubility in chloroform (in words)” value is recorded as “substantially not dissolved”.

Staying with this data set, now noted: solvent chloroform; listed as di-1-tetradesyne-substituted DNTT.
In turn, `CCCCCCCCCCCCC#Cc1c2ccccc2cc2sc3c(sc4cc5ccccc5c(C#CCCCCCCCCCCCC)c43)c12` [di-1-tetradysine-substituted DNTT, di-1-tetradecyne-substituted DNTT] registered a solubility in chloroform of 1.67 wt %.
